Bridge positions count the residues as written; N and C are the ends. Square brackets hold non-standard residues; d marks the D form. Peptide text beside a SMILES is read from it. Pen = CC(C)(S)[C@H](N)C(=O)O; Orn = NCCC[C@H](N)C(=O)O
Key:
[1] = molecular target: T1, endogeneous urotensin II receptor (UT receptor) in 6D9 cells (Homo sapiens, UniProt Q9UKP6); assay: 384-well FLIPR high throughput calcium mobilization assay in 6D9 cells; assay type: cell-based; conditions: 384-format
T1 construct: endogenous in cells; host or cells: 6D9 (ATCC PTA-7749), sub-clone of human rhabdomyosarcoma line SJRH30 (ATCC CRL-2061)
T1 sequence (Q9UKP6 1-389): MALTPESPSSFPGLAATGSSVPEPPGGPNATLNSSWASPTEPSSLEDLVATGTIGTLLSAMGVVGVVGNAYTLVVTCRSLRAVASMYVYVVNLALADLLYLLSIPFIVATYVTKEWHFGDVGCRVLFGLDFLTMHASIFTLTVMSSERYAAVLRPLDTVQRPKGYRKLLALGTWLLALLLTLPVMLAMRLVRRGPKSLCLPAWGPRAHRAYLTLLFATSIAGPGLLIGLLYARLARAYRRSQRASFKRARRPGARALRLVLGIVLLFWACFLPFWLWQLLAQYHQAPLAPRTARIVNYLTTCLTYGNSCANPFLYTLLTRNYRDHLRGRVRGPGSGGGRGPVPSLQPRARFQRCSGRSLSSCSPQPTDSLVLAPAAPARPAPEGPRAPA
Method: Calcium mobilization was performed using FLIPR and Calcium 3, a non-wash Ca^2+ dye. Unlike the conventional Ca^2+ dye such as Fluo-3, Fluo-4, and Fura-2/AM, etc., the non-wash Ca^2+ dye was formulated to incorporate extracellular fluorescence quenchers and avoid the need to wash away extracellular Ca^2+ dye after loading the cells with the dye (Monteith and Bird, 2005, supra). Cells were plated into 96 or 384 well plates and were incubated at 37° C. After the incubation, the growth medium was removed and replaced with HBSS (Hanks Balanced salt solution #21-023-CV, Mediatech, Inc, Herndon, Va.) containing Calcium 3 dye with probenecid. […] This Example teaches a high throughput approach using FLIPR on a 384-well format. […] Various factors of the FLIPR assay had been tested to minimize the measure variability.

[2] = molecular target: T1, endogeneous urotensin II receptor (UT receptor) in 6D9 cells; assay: Calcium mobilization assay (FLIPR, Calcium 3 dye) in 6D9 cells; assay type: cell-based; conditions: 10 nM or 30 nM U-II (FIG. 6)
Method: Calcium mobilization was performed using FLIPR and Calcium 3, a non-wash Ca^2+ dye. Unlike the conventional Ca^2+ dye such as Fluo-3, Fluo-4, and Fura-2/AM, etc., the non-wash Ca^2+ dye was formulated to incorporate extracellular fluorescence quenchers and avoid the need to wash away extracellular Ca^2+ dye after loading the cells with the dye (Monteith and Bird, 2005, supra).
Cells were plated into 96 or 384 well plates and were incubated at 37° C. After the incubation, the growth medium was removed and replaced with HBSS (Hanks Balanced salt solution #21-023-CV, Mediatech, Inc, Herndon, Va.) containing Calcium 3 dye with probenecid.
In addition, the cells survived in cultures for over 3 months (17 passages) and were still responsive to U-II (FIG. 4).

SMILES: CC(C)[C@H](NC(=O)[C@@H]1CSSC(C)(C)[C@H](NC(=O)[C@@H](N)CC(=O)O)C(=O)N[C@@H](Cc2ccccc2)C(=O)N[C@H](Cc2c[nH]c3ccccc23)C(=O)N[C@@H](CCCN)C(=O)N[C@@H](Cc2ccc(O)cc2)C(=O)N1)C(=O)O [Urantide] (H-D[Pen]F[dW][Orn]YCV-OH; disulfide 2-7)
- Dose dependence of response in HTS calcium mobilization assay [1]: dose dependent responses
- Block of calcium mobilization coupled to U-II stimulation [2]: blocked the calcium mobilization coupled to U-II stimulation

SMILES: CC(C)[C@H](NC(=O)[C@@H]1CSSC[C@H](NC(=O)[C@H](CC(=O)O)NC(=O)[C@@H]2CCCN2C(=O)[C@@H](NC(=O)[C@@H](N)CCC(=O)O)[C@@H](C)O)C(=O)N[C@@H](Cc2ccccc2)C(=O)N[C@@H](Cc2c[nH]c3ccccc23)C(=O)N[C@@H](CCCCN)C(=O)N[C@@H](Cc2ccc(O)cc2)C(=O)N1)C(=O)O [hU-II, SEQ ID NO: 2, ETPDCFWKYCV]
- Dose dependence of response in HTS calcium mobilization assay [1]: dose dependent responses

— patent US7892826B2, “Human cell clones having an endogeneous urotensin II receptor” (Janssen Pharmaceutica N.V., priority 2005, dated 2011)
